In US10632174B2, “B7-H1 fusion polypeptides for treating and preventing organ failure” (Fraunhofer-Gesellschaft zur Förderung der angewandten …, priority 2015, dated 2020):

Columns and labels:
[1] = system: B7-H1 expression in Hepa1-6 cells; experiment: B7-H1 mRNA (qPCR) and protein (Western) expression in Hepa1-6 cells; type: cell-based, murine; settings: 100 ng/ml LPS with 10 mM NAC, FIG. 7 vs FIG. 3B
Experimental: FIG. 3: B7-H1 expression in Hepa1-6 cells following LPS or LTA stimulation. Hepa1-6 cells were stimulated for the indicated times with 100 ng/ml LPS or 100 ng/ml LTA. Afterwards cells were harvested and mRNA was isolated or protein lysates were prepared as described in Materials and Methods. mRNA expression of B7-H1 (A) was analyzed by quantitative PCR. 18s rRNA was used as a house keeping gene. (B) B7-H1 protein expression following LPS stimulation was determined by Western analysis. All experiments were performed at least five times. Data represent the mean±SD (*p<0.5) or show a representative blot.
FIG. 7: B7-H1 expression was restored adding the GSH precursor N-acetyl-cysteine (NAC). Hepa1-6 cells were stimulated for the indicated times with 100 ng/ml LPS with 10 mM NAC. Afterwards cells were harvested and protein lysates were prepared as described in Materials and Methods. B7-H1 protein expression was determined by Western analysis. All experiments were performed at least five times. […]
LPS and LTA act via different Toll-like receptors (TLRs) on target cells i.e. TLR2 for LTA and TLR4 for LPS. […] To investigate whether a ROS-dependent mechanism was responsible for the reduction of B7-H1, ROS formation was determined in Hepa 1-6 cells treated with LPS alone or in combination with N-acetylcysteine (NAC). […]
B7-H1, B7-DC, PD-1, Fas and EGFP expression were analyzed by Western analysis. […]

[2] = system: B7-H1 surface expression in Hepa1-6 cells (Nox4 inhibition); experiment: B7-H1 surface expression in Hepa1-6 cells by FACS; type: cell-based, murine; settings: 10 μM, 24 h, no further treatment, FIG. 8A
Experimental: FIG. 8: Inhibition of Nox4 enhances B7-H1 expression. Hepa1-6 cells were treated with the Nox4-specific inhibitor GKT137831 [10 μM] for 24 h. Afterwards, cells were harvested and B7-H1 expression was determined by FACS analysis. A quantification of five independent experiments is provided in (A). In liver homogenates of global NOX4 knockout mice B7-H1 protein expression was examined by Western blotting (B). A representative blot is shown. A quantification of B7-H1 expression (WT vs. NOX4-KO; n=5/5; *p<0.5) is provided in (C). B7-H1 expression on hepatocytes following polymicrobial sepsis initiation by cecal ligation and puncture (CLP) was studied in liver single cell suspensions by FACS-analysis gating for CD45-, i.e. non-immune cells as described in Materials and Methods. A quantification is shown (D), (sham vs. CLP, WT sham is set as 1; n=5/5/5/5; *p<0.5). Liver damage in global NOX4 knockout mice following CLP operation is assessed by looking at ALT/AST release into the serum, which is determined with a Reflotron Plus […] analyzer (E) (NOX4-KO; sham vs. CLP; n=5/5, *p<0.5). […]
All antibodies and secondary reagents were titrated to optimal concentrations. […] Surface expression of B7-H1 and B7-DC on the surface of primary hepatocytes was determined by FACS analysis, using anti-B7-H-PE or anti-B7-DC-PE. […]

| SMILES | B7-H1 protein expression [1] | increase of B7-H1 surface expression [2] |
| --- | --- | --- |
| CC(=O)N[C@@H](CS)C(=O)O [NAC, N-acetylcysteine] | restored expression of B7-H1 |  |
| CN(C)c1cccc(-c2c3c(=O)n(-c4ccccc4Cl)[nH]c3cc(=O)n2C)c1 [GKT137S31] |  | roughly 50% |
